Tests used:
Type in all cases: in vivo
[1] = test system: Italian ryegrass (Lolium multiflorum); experiment: Test B pre-/postemergence plant response
How it was run: (§1)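 Ratings reflect visual injury versus untreated controls, from 0 for no effect to 100 for complete control, assessed roughly 10 days after treatment. Formulation: non-phytotoxic solvent mix with surfactant; pre- and postemergence sprays on plants grown in loam soil and sand.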

[2] = test system: kochia (Kochia scoparia); experiment: Test B pre-/postemergence plant response
How it was run: as §1

[3] = test system: ragweed (common ragweed, Ambrosia elatior); experiment: Test B pre-/postemergence plant response
How it was run: as §1

[4] = test system: barnyardgrass (Echinochloa crus-galli); experiment: Test C flooded paddy test plant response; conditions: Flood, 250 g ai/ha; scale of 0 to 100 where 0 is no effect and 100 is complete control; 13 to 15 days
How it was run: (§2)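 Flooded-pot format, 3 cm water over soil maintained for the test duration; test compounds dispensed into the water at the 2-leaf stage. Greenhouse holding 13 to 15 days. Plants evaluated visually relative to untreated controls, 0 meaning no effect and 100 complete control.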

[5] = test system: ducksalad (Heteranthera limosa); experiment: Test C flooded paddy test plant response; conditions: Flood, 250 g ai/ha; scale of 0 to 100 where 0 is no effect and 100 is complete control; 13 to 15 days
How it was run: as §2

[6] = test system: rice (Oryza sativa); experiment: Test C flooded paddy test plant response; conditions: Flood, 250 g ai/ha; scale of 0 to 100 where 0 is no effect and 100 is complete control; 13 to 15 days
How it was run: as §2

[7] = test system: small-flower umbrella sedge (Cyperus difformis); experiment: Test C flooded paddy test plant response; conditions: Flood, 250 g ai/ha; scale of 0 to 100 where 0 is no effect and 100 is complete control; 13 to 15 days
How it was run: as §2

[8] = test system: barnyardgrass (Echinochloa crus-galli); experiment: Test D pre-/postemergence plant response; conditions: Postemergence; for Plant response rating (scale 0 to 100), Barnyardgrass: 16 g ai/ha; for Barnyardgrass plant response rating: 31 g ai/ha, scale 0 to 100 (0 no effect, 100 complete control); for Plant response rating, Barnyardgrass: scale 0 to 100, 0 no effect, 100 complete control
How it was run: (§3)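 Pre-/post-emergence greenhouse test. Pre: seeded loam+sand, sprayed same day. Post: 1–4 leaf plants (2–18 cm), peat/vermiculite mix. Formulation: non-phytotoxic solvent + surfactant. Scored visually d13–15, 0–100 vs control.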

[9] = test system: blackgrass (Alopecurus myosuroides); experiment: Test D pre-/postemergence plant response; conditions: Postemergence; for Plant response rating (scale 0 to 100), Blackgrass: 16 g ai/ha; for Blackgrass plant response rating: 31 g ai/ha, scale 0 to 100 (0 no effect, 100 complete control); for Plant response rating, Blackgrass: scale 0 to 100, 0 no effect, 100 complete control
How it was run: as §3

[10] = test system: giant foxtail (Setaria faberii); experiment: Test D pre-/postemergence plant response; conditions: Postemergence; for Plant response rating (scale 0 to 100), Foxtail, Giant: 16 g ai/ha; for Foxtail, Giant plant response rating: 31 g ai/ha, scale 0 to 100 (0 no effect, 100 complete control); for Plant response rating, Foxtail, Giant: scale 0 to 100, 0 no effect, 100 complete control
How it was run: as §3

[11] = test system: johnsongrass (Sorghum halepense); experiment: Test D pre-/postemergence plant response; conditions: Postemergence; for Plant response rating (scale 0 to 100), Johnsongrass: 16 g ai/ha; for Johnsongrass plant response rating: 31 g ai/ha, scale 0 to 100 (0 no effect, 100 complete control); for Plant response rating, Johnsongrass: scale 0 to 100, 0 no effect, 100 complete control
How it was run: as §3

[12] = test system: oilseed rape (Brassica napus); experiment: Test D pre-/postemergence plant response; conditions: Postemergence; for Plant response rating (scale 0 to 100), Oilseed Rape: 16 g ai/ha; for Plant response rating, Oilseed Rape: 125 g ai/ha
How it was run: as §3

[13] = test system: pigweed (Amaranthus retroflexus); experiment: Test D pre-/postemergence plant response; conditions: Postemergence; for Plant response rating (scale 0 to 100), Pigweed: 16 g ai/ha; for Plant response rating, Pigweed: 125 g ai/ha
How it was run: as §3

[14] = test system: velvetleaf (Abutilon theophrasti); experiment: Test D pre-/postemergence plant response; conditions: Postemergence; for Plant response rating (scale 0 to 100), Velvetleaf: 16 g ai/ha; for Plant response rating, Velvetleaf: 125 g ai/ha
How it was run: as §3

[15] = 31 g ai/ha, Preemergence, 0 to 100 scale where 0 is no effect and 100 is complete control
[16] = 125 g ai/ha, postemergence, 0 to 100 scale, 0 no effect, 100 complete control
[17] = Postemergence, 31 g ai/ha, 0 to 100 scale (0 no effect, 100 complete control)
[18] = Preemergence, 125 g ai/ha, 0 to 100 scale (0 no effect, 100 complete control)
[19] = 31 g ai/ha, scale 0 to 100 (0 no effect, 100 complete control)
[20] = 62 g ai/ha, scale 0 to 100, 0 no effect, 100 complete control
[21] = scale 0 to 100, 0 no effect, 100 complete control

## Fc1ccc(Oc2ncc(Cl)cn2)c(-c2cc(C(F)(Cl)Cl)on2)c1 [Compound 221]
[1]; [15]
  Plant response rating, Ryegrass, Italian: 20
[1]; [16]
  Plant response rating, Ryegrass, Italian: 40
[1]; [17]
  Plant response rating, Ryegrass, Italian: 0
[1]; [18]
  Ryegrass, Italian plant response rating: 40
[2]; [15]
  Plant response rating, Kochia: 50
[2]; [16]
  Plant response rating, Kochia: 100
[2]; [17]
  Plant response rating, Kochia: 80
[2]; [18]
  Kochia plant response rating: 70
[3]; [15]
  Plant response rating, Ragweed: 0
[3]; [16]
  Plant response rating, Ragweed: 50
[3]; [17]
  Plant response rating, Ragweed: 10
[3]; [18]
  Ragweed plant response rating: 0
[4]
  Barnyardgrass plant response rating: 0
[5]
  Ducksalad plant response rating: 100
[6]
  Rice plant response rating: 0
[7]
  Sedge, Umbrella plant response rating: 95
[8]
  Plant response rating (scale 0 to 100), Barnyardgrass: 0
  Barnyardgrass plant response rating: 5
[8]; 62 g ai/ha
  Plant response rating, Barnyardgrass: 5
[8]; 125 g ai/ha
  Plant response rating, Barnyardgrass: 10
[9]
  Plant response rating (scale 0 to 100), Blackgrass: 5
  Blackgrass plant response rating: 10
[9]; 62 g ai/ha
  Plant response rating, Blackgrass: 5
[9]; 125 g ai/ha
  Plant response rating, Blackgrass: 40
[10]
  Plant response rating (scale 0 to 100), Foxtail, Giant: 35
  Foxtail, Giant plant response rating: 5
[10]; 62 g ai/ha
  Plant response rating, Foxtail, Giant: 5
[10]; 125 g ai/ha
  Plant response rating, Foxtail, Giant: 35
[11]
  Plant response rating (scale 0 to 100), Johnsongrass: 0
  Johnsongrass plant response rating: 5
[11]; 62 g ai/ha
  Plant response rating, Johnsongrass: 15
[11]; 125 g ai/ha
  Plant response rating, Johnsongrass: 15
[12]
  Plant response rating (scale 0 to 100), Oilseed Rape: 70
[12]; [19]
  Oilseed Rape plant response rating: 70
[12]; [20]
  Oilseed Rape plant response rating: 90
[12]; [21]
  Plant response rating, Oilseed Rape: 90
[13]
  Plant response rating (scale 0 to 100), Pigweed: 95
[13]; [19]
  Pigweed plant response rating: 95
[13]; [20]
  Pigweed plant response rating: 98
[13]; [21]
  Plant response rating, Pigweed: 100
[14]
  Plant response rating (scale 0 to 100), Velvetleaf: 70
[14]; [19]
  Velvetleaf plant response rating: 65
[14]; [20]
  Velvetleaf plant response rating: 80
[14]; [21]
  Plant response rating, Velvetleaf: 100

## FCc1cc(-c2ccccc2Oc2ncc(Cl)cn2)on1 [Compound 224]
[1]; [15]
  Plant response rating, Ryegrass, Italian: 0
[1]; [16]
  Plant response rating, Ryegrass, Italian: 0
[1]; [17]
  Plant response rating, Ryegrass, Italian: 0
[1]; [18]
  Ryegrass, Italian plant response rating: 0
[2]; [15]
  Plant response rating, Kochia: 60
[2]; [16]
  Plant response rating, Kochia: 100
[2]; [17]
  Plant response rating, Kochia: 70
[2]; [18]
  Kochia plant response rating: 90
[3]; [16]
  Plant response rating, Ragweed: 100
[3]; [17]
  Plant response rating, Ragweed: 50
[4]
  Barnyardgrass plant response rating: 0
[5]
  Ducksalad plant response rating: 70
[6]
  Rice plant response rating: 0
[7]
  Sedge, Umbrella plant response rating: 65
[8]
  Plant response rating (scale 0 to 100), Barnyardgrass: 5
  Barnyardgrass plant response rating: 5
[8]; 62 g ai/ha
  Plant response rating, Barnyardgrass: 10
[8]; 125 g ai/ha
  Plant response rating, Barnyardgrass: 15
[9]
  Plant response rating (scale 0 to 100), Blackgrass: 0
  Blackgrass plant response rating: 0
[9]; 62 g ai/ha
  Plant response rating, Blackgrass: 5
[9]; 125 g ai/ha
  Plant response rating, Blackgrass: 0
[10]
  Plant response rating (scale 0 to 100), Foxtail, Giant: 0
  Foxtail, Giant plant response rating: 5
[10]; 62 g ai/ha
  Plant response rating, Foxtail, Giant: 5
[10]; 125 g ai/ha
  Plant response rating, Foxtail, Giant: 40
[11]
  Plant response rating (scale 0 to 100), Johnsongrass: 5
  Johnsongrass plant response rating: 5
[11]; 62 g ai/ha
  Plant response rating, Johnsongrass: 5
[11]; 125 g ai/ha
  Plant response rating, Johnsongrass: 5
[12]
  Plant response rating (scale 0 to 100), Oilseed Rape: 0
[12]; [19]
  Oilseed Rape plant response rating: 10
[12]; [20]
  Oilseed Rape plant response rating: 50
[12]; [21]
  Plant response rating, Oilseed Rape: 98
[13]
  Plant response rating (scale 0 to 100), Pigweed: 85
[13]; [19]
  Pigweed plant response rating: 85
[13]; [20]
  Pigweed plant response rating: 85
[13]; [21]
  Plant response rating, Pigweed: 90
[14]
  Plant response rating (scale 0 to 100), Velvetleaf: 10
[14]; [19]
  Velvetleaf plant response rating: 25
[14]; [20]
  Velvetleaf plant response rating: 30
[14]; [21]
  Plant response rating, Velvetleaf: 60

## Fc1cccc(Oc2ncc(Cl)cn2)c1-c1cc(C(F)(F)F)no1 [Compound 228]
[1]; [15]
  Plant response rating, Ryegrass, Italian: 30
[1]; [16]
  Plant response rating, Ryegrass, Italian: 90
[1]; [17]
  Plant response rating, Ryegrass, Italian: 20
[1]; [18]
  Ryegrass, Italian plant response rating: 70
[2]; [15]
  Plant response rating, Kochia: 70
[2]; [16]
  Plant response rating, Kochia: 100
[2]; [17]
  Plant response rating, Kochia: 100
[2]; [18]
  Kochia plant response rating: 100
[3]; [15]
  Plant response rating, Ragweed: 0
[3]; [16]
  Plant response rating, Ragweed: 40
[3]; [17]
  Plant response rating, Ragweed: 30
[3]; [18]
  Ragweed plant response rating: 30
[4]
  Barnyardgrass plant response rating: 40
[5]
  Ducksalad plant response rating: 85
[6]
  Rice plant response rating: 0
[7]
  Sedge, Umbrella plant response rating: 90
[8]
  Plant response rating (scale 0 to 100), Barnyardgrass: 15
  Barnyardgrass plant response rating: 20
[8]; 62 g ai/ha
  Plant response rating, Barnyardgrass: 20
[8]; 125 g ai/ha
  Plant response rating, Barnyardgrass: 35
[9]
  Plant response rating (scale 0 to 100), Blackgrass: 15
  Blackgrass plant response rating: 15
[9]; 62 g ai/ha
  Plant response rating, Blackgrass: 25
[9]; 125 g ai/ha
  Plant response rating, Blackgrass: 35
[10]
  Plant response rating (scale 0 to 100), Foxtail, Giant: 10
  Foxtail, Giant plant response rating: 10
[10]; 62 g ai/ha
  Plant response rating, Foxtail, Giant: 20
[10]; 125 g ai/ha
  Plant response rating, Foxtail, Giant: 40
[11]
  Plant response rating (scale 0 to 100), Johnsongrass: 10
  Johnsongrass plant response rating: 10
[11]; 62 g ai/ha
  Plant response rating, Johnsongrass: 25
[11]; 125 g ai/ha
  Plant response rating, Johnsongrass: 60
[12]
  Plant response rating (scale 0 to 100), Oilseed Rape: 65
[12]; [19]
  Oilseed Rape plant response rating: 85
[12]; [20]
  Oilseed Rape plant response rating: 80
[12]; [21]
  Plant response rating, Oilseed Rape: 98
[13]
  Plant response rating (scale 0 to 100), Pigweed: 85
[13]; [19]
  Pigweed plant response rating: 95
[13]; [20]
  Pigweed plant response rating: 95
[13]; [21]
  Plant response rating, Pigweed: 98
[14]
  Plant response rating (scale 0 to 100), Velvetleaf: 35
[14]; [19]
  Velvetleaf plant response rating: 40
[14]; [20]
  Velvetleaf plant response rating: 65
[14]; [21]
  Plant response rating, Velvetleaf: 80

Reference: US10131652B2, “Pyrimidinyloxy benzene derivatives as herbicides” (E. I. DU PONT DE NEMOURS AND COMPANY, priority 2014, dated 2018)
